{"source": "patent US20140148336A1", "about": "“METHODS OF CONTROLLING FUNGAL PATHOGENS USING POLYENE FUNGICIDES” (priority 2012, published 2014)", "key": {"[1]": {"test_system": "soybean", "assay": "Seed treatment in uninfested soil, germination and potential phytotoxicity (Example 5)", "format": "in vivo", "conditions": "for Root Vigor Average (Uninfested Soil): rating 0-4 (4 = healthy taproot)", "text": "(§1) The plants were allowed to grow for 18-21 days. The plants were then gently removed and assessed for root rot symptoms, with a rating of 1=0% infection on taproot and lateral roots, a 2=<25% infection, a 3=25-50% infection, a 4=51-90% infection, and a 5=>90% infection. Root vigor was rated such that a rating of 4=healthy taproot and many lateral roots, a 3=fewer lateral roots and some stunting, a 2=fewer or stringy lateral roots and more stunting, 1=thin tap root and only a few lateral roots, and a 0=thin and stunted taproot with 0-3 lateral roots.\n(§2) Using a protocol similar to Example 2, natamycin treated seeds were tested at 50 μg, 25 μg, 10 μg, 5 μg, and 1 μg natamycin per seed. Briefly, seeds were coated with a natamycin slurry and then allowed to air dry. Ten samples of each were planted into infested soil, while five samples of each were planted in uninfested soil to compare germination and potential phytotoxicity."}, "[2]": {"test_system": "SDS Fusarium virguliforme", "assay": "Drench treatment on soy seedlings for control of SDS in planta, low concentrations (Example 4)", "format": "in vivo", "conditions": "for Root Vigor Average Expt. 1 / Root Vigor Average Expt. 2: rating 0 (thin and stunted taproot) to 4 (healthy taproot); for Root Vigor Average Expt. 1: IC 1.6, UIC 3.6; for Root Vigor Average Expt. 2: IC 2.2, UIC 3.9; for Root Rot Average Expt. 2 / Root Rot Average Expt. 1: rating 1 (0% infection) to 5 (>90% infection); for Root Rot Average Expt. 2: IC 3.8, UIC 1; for Root Rot Average Expt. 1: IC 4, UIC 1", "text": "The plants were allowed to grow for 18-21 days. The plants were then gently removed and assessed for root rot symptoms, with a rating of 1=0% infection on taproot and lateral roots, a 2=<25% infection, a 3=25-50% infection, a 4=51-90% infection, and a 5=>90% infection. Root vigor was rated such that a rating of 4=healthy taproot and many lateral roots, a 3=fewer lateral roots and some stunting, a 2=fewer or stringy lateral roots and more stunting, 1=thin tap root and only a few lateral roots, and a 0=thin and stunted taproot with 0-3 lateral roots. […] In these experiments, the inoculum rate was measured by spores/cone at approximately 1×10^7 SDS Fusarium virguliforme spores per cone. Soy plants were germinated first and then transplanted into infested soil. The soybean seeds were germinated in clean sand/soil for 12 days and then seedlings were transplanted into infested soil for 18 days. Natamycin drench was applied 24 hours after transplanting. Natamycin treatment was assessed at 2.5 weeks."}, "[3]": {"test_system": "SDS spores", "assay": "Drench treatment on soy seedlings for control of SDS in planta (Example 3)", "format": "in vivo, Fusarium virguliforme", "conditions": "50 mL per container, 1×10^7 spores/container, eighteen days", "text": "as §1, with “roots. […] Two experiments were performed. The natamycin solutions were used as a drench treatment with 50 mL of the solution applied to each container. Soy seedlings were transplanted into SDS infested soil, with SDS spores at a rate of 1×10^7 spores/container. The natamycin solutions were applied to the containers the day after transplant. Soy roots were washed after eighteen days.” for “roots.”"}, "[4]": {"test_system": "SDS", "assay": "Seed treatment for control of SDS in planta, infested soil (Example 5)", "format": "in vivo, Fusarium virguliforme", "conditions": "for Root Rot Average: 25 g inoculum per liter, rating 1-5 (5 = >90% infection), IC 3.3; for Root Vigor Average Infested Soil: rating 0-4 (4 = healthy taproot), IC 2.5", "text": "as §1, §2\nInoculum rates in this experiment were 25 g inoculum per liter sand/soil. This is equivalent to 8.5×10^4 spores per cone.\nPlants treated with 50 μg/seed of natamycin had the most root rot, while plants treated with 1 μg/seed of natamycin had the least root rot. […] In the tables below, “IC Natamycin 25 ppm” refers to an infested control that was treated with natamcyin as a drench application at 25 ppm two days after planting untreated seed into infested soil."}, "[5]": {"test_system": "F. virguliforme", "assay": "Agar diffusion assay, zones of inhibition on F. virguliforme lawn plates (Example 1)", "format": "cell-based, Fusarium virguliforme", "description": "A PDA plate containing two week old F. virguliforme was flooded with sterile distilled water and scraped with an L-rod to release spores. The spore solution was poured through about four layers of cheese cloth into a 50 mL conical tube. Spores were quantified using a hemacytometer, then diluted to 1×10^5 spores/mL. (1×10^4 spores were spread on plates.) To make F. virguliforme lawn plates, 100 μL of the spore suspension was spread onto commercial PDA plates. Wells were made for the F. virguliforme lawn plates using straw-plungers.\nNatamycin stock was diluted in sterile distilled water to concentrations of 500 ppm, 250 ppm, 100 ppm, 50 ppm, 25 ppm, 12.5 ppm, 6.25 ppm, 3.13 ppm, 1.56 ppm, 0.78 ppm, and 0.4 ppm. 100 μL of each dilution was placed in a well on the lawn plates. Control plates consisted of a 1000 ppm plate, a water control, and a 70% ethanol (EtOH) control.\n[…] […] Dilutions lower than 12.5 ppm had no effect."}, "[6]": {"conditions": "drench 25 ppm two days after planting untreated seed into infested soil"}}, "data": [{"smiles": "C[C@@H]1C/C=C/C=C/C=C/C=C/[C@H](O[C@@H]2O[C@H](C)[C@@H](O)[C@H](N)[C@@H]2O)C[C@@H]2O[C@](O)(C[C@@H](O)C[C@H]3O[C@@H]3/C=C/C(=O)O1)C[C@H](O)[C@H]2C(=O)O", "note": "[Natamycin, natamycin]", "values": [{"measurement": "germination of plants", "setting": "[1]; all plants, seed treatment at all natamycin concentrations (50, 25, 10, 5, 1 μg per seed), un-infested (clean) soil", "result": "germinated"}, {"measurement": "Root Vigor Average (Uninfested Soil)", "setting": "[1]; seed treatment 1 μg/seed", "result": 3.5}, {"measurement": "Root Vigor Average (Uninfested Soil)", "setting": "[1]; seed treatment 5 μg/seed", "result": 3.9}, {"measurement": "Root Vigor Average (Uninfested Soil)", "setting": "[1]; seed treatment 10 μg/seed", "result": 3.6}, {"measurement": "Root Vigor Average (Uninfested Soil)", "setting": "[1]; seed treatment 25 μg/seed", "result": 3.3}, {"measurement": "Root Vigor Average (Uninfested Soil)", "setting": "[1]; seed treatment 50 μg/seed", "result": 3.8}, {"measurement": "phytotoxicity to seeds", "setting": "[1]; seed treatment at all concentrations (50, 25, 10, 5, 1 μg per seed), un-infested soil", "result": "not phytotoxic"}, {"measurement": "Root Vigor Average Expt. 1", "setting": "[2]; drench 1 ppm", "result": 1.7}, {"measurement": "Root Vigor Average Expt. 2", "setting": "[2]; drench 1 ppm", "result": 2.5}, {"measurement": "Root Rot Average Expt. 2", "setting": "[2]; drench 1 ppm", "result": 3.2}, {"measurement": "Root Rot Average Expt. 1", "setting": "[2]; drench 1 ppm", "result": 4.5}, {"measurement": "Root Vigor Average Expt. 1", "setting": "[2]; drench 5 ppm", "result": 2}, {"measurement": "Root Vigor Average Expt. 2", "setting": "[2]; drench 5 ppm", "result": 2.7}, {"measurement": "Root Rot Average Expt. 2", "setting": "[2]; drench 5 ppm", "result": 3.4}, {"measurement": "Root Rot Average Expt. 1", "setting": "[2]; drench 5 ppm", "result": 3.9}, {"measurement": "Root Vigor Average Expt. 1", "setting": "[2]; drench 10 ppm", "result": 2.1}, {"measurement": "Root Vigor Average Expt. 2", "setting": "[2]; drench 10 ppm", "result": 3}, {"measurement": "Root Rot Average Expt. 2", "setting": "[2]; drench 10 ppm", "result": 3.1}, {"measurement": "Root Rot Average Expt. 1", "setting": "[2]; drench 10 ppm", "result": 3.5}, {"measurement": "Root Vigor Average Expt. 1", "setting": "[2]; drench 25 ppm", "result": 2.8}, {"measurement": "Root Vigor Average Expt. 2", "setting": "[2]; drench 25 ppm", "result": 3.1}, {"measurement": "Root Rot Average Expt. 2", "setting": "[2]; drench 25 ppm", "result": 2.6}, {"measurement": "Root Rot Average Expt. 1", "setting": "[2]; drench 25 ppm", "result": 2.9}, {"measurement": "Root Vigor Average Expt. 1", "setting": "[2]; drench 50 ppm", "result": 2.3}, {"measurement": "Root Vigor Average Expt. 2", "setting": "[2]; drench 50 ppm", "result": 2.9}, {"measurement": "Root Rot Average Expt. 2", "setting": "[2]; drench 50 ppm", "result": 2.6}, {"measurement": "Root Rot Average Expt. 1", "setting": "[2]; drench 50 ppm", "result": 3.1}, {"measurement": "root rot ratings vs infested control (IC) plants", "setting": "[3]; drench 10 ppm", "result": "significantly lower"}, {"measurement": "root vigor ratings vs infested control (IC) plants", "setting": "[3]; drench 10 ppm", "result": "higher"}, {"measurement": "root rot ratings vs infested control (IC) plants", "setting": "[3]; drench 25 ppm", "result": "significantly lower"}, {"measurement": "root vigor ratings vs infested control (IC) plants", "setting": "[3]; drench 25 ppm", "result": "higher"}, {"measurement": "root rot ratings vs infested control (IC) plants", "setting": "[3]; drench 50 ppm", "result": "significantly lower"}, {"measurement": "root vigor ratings vs infested control (IC) plants", "setting": "[3]; drench 50 ppm", "result": "higher"}, {"measurement": "Root Rot Average", "setting": "[4]; [6]", "result": 1.8}, {"measurement": "Root Vigor Average Infested Soil", "setting": "[4]; [6]", "result": 2.3}, {"measurement": "Root Rot Average", "setting": "[4]; seed treatment 1 μg/seed, infested soil", "result": 3}, {"measurement": "Root Vigor Average Infested Soil", "setting": "[4]; seed treatment 1 μg/seed", "result": 1.9}, {"measurement": "Root Rot Average", "setting": "[4]; seed treatment 5 μg/seed, infested soil", "result": 3.6}, {"measurement": "Root Vigor Average Infested Soil", "setting": "[4]; seed treatment 5 μg/seed", "result": 2.4}, {"measurement": "Root Rot Average", "setting": "[4]; seed treatment 10 μg/seed, infested soil", "result": 4}, {"measurement": "Root Vigor Average Infested Soil", "setting": "[4]; seed treatment 10 μg/seed", "result": 1.8}, {"measurement": "Root Rot Average", "setting": "[4]; seed treatment 25 μg/seed, infested soil", "result": 4.7}, {"measurement": "Root Vigor Average Infested Soil", "setting": "[4]; seed treatment 25 μg/seed", "result": 1.1}, {"measurement": "Root Rot Average", "setting": "[4]; seed treatment 50 μg/seed, infested soil", "result": 4.6}, {"measurement": "Root Vigor Average Infested Soil", "setting": "[4]; seed treatment 50 μg/seed", "result": 1.6}, {"measurement": "control of F. virguliforme (zones of inhibition), drop off", "setting": "[5]; 12.5 ppm, 100 μL per well, after three days", "result": "noticeably"}, {"measurement": "control of F. virguliforme (zones of inhibition)", "setting": "[5]; 12.5 ppm, after seven days", "result": "very limited activity"}, {"measurement": "Fusarium growth around plates", "setting": "[5]; 25 ppm and 12.5 ppm plates, one day later (after the three-day reading)", "result": "more Fusarium grew"}, {"measurement": "control of F. virguliforme (zones of inhibition)", "setting": "[5]; 50 ppm, 100 μL per well, after three days", "result": "started to drop off slightly"}, {"measurement": "control of F. virguliforme (zones of inhibition)", "setting": "[5]; 50 ppm, after seven days", "result": "started falling off"}, {"measurement": "control of F. virguliforme (zones of inhibition)", "setting": "[5]; 100 ppm, 100 μL per well, after three days", "result": "Substantial control"}, {"measurement": "control of F. virguliforme (zones of inhibition)", "setting": "[5]; 250 ppm, 100 μL per well, after three days", "result": "Substantial control"}, {"measurement": "control of F. virguliforme (zones of inhibition)", "setting": "[5]; 500 ppm, 100 μL per well, after three days", "result": "Substantial control"}, {"measurement": "control of F. virguliforme (zones of inhibition)", "setting": "[5]; 1000 ppm plate, after three days", "result": "almost completely controlled"}, {"measurement": "effect on F. virguliforme (zones of inhibition)", "setting": "[5]; dilutions lower than 12.5 ppm", "result": "no effect"}]}]}
